The source of these data is PubChem BioAssay AID1159562 (GlaxoSmithKline (GSK), 2015).

The structures appear in SMILES notation. Calls of active or inactive are those of the source. The rule behind the calls is not given here. Some results are limits rather than exact numbers.

The assay concerns Trypanosoma brucei growth inhibition, luminescence. Briefly: antitrypanosomal activity against T. brucei – luminescence (AID 1159562).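 Note: parasites grew with compound for 24 h before the luminescence read.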
What is called IC50 is the concentration that gives 50% inhibition. In the case of `CCCC(=O)N(Cc1ccccn1)c1nc2ccccc2s1`, the IC50 was > 40 µM (inactive).

Take `CC(Cn1ccnc1)NC(=O)COc1ccc(Cl)c(Cl)c1` (centres undefined): the IC50 is > 40 µM (inactive).

With `CNS(=O)(=O)c1ccccc1Nc1nc(Nc2cc(C)nn2C)ncc1Cl`, the IC50 is 0.1 µM.

Consider `NC(=O)c1ncc(N[C@@H]2CCCNC2)nc1Nc1cccc(Cl)c1`, for which the IC50 was 0.2 µM.

Take `Fc1ccc(Nc2nc(-c3ccccn3)cs2)cc1`: the IC50 is 25 µM.

Take `NS(=O)(=O)c1ccc(CNC(=O)c2ccc([N+](=O)[O-])s2)cc1`: the IC50 is 0.25 µM.

Consider `COc1ccc(C(C)(C)C)cc1S(=O)(=O)n1ccnc1`, for which the IC50 is > 40 µM (inactive).

For `COC(=O)c1ccc(-c2cnc3ccc(NCc4ccccn4)nn23)cc1`, the 50% inhibitory concentration (IC50) is 1 µM.

In the case of `CN(C)c1ncc(-c2cncn2CCOc2ccc(Cl)cc2)cn1`, the IC50 was > 40 µM (inactive).

Consider `Cn1ccnc1CN1CCc2[nH]cnc2C1c1ccccc1OCc1ccccc1` (centres undefined), for which the IC50 was 0.5 µM.

For the compound `COc1ccc2ncc(Cl)c(CCN3CC[C@@H](NCc4cc5c(cn4)OCS5)[C@H](O)C3)c2n1`, the half-maximal inhibitory concentration (IC50) was 0.4 µM.

As to `Oc1cccnc1-c1n[nH]c(Cc2ccccc2)n1`, the IC50 was 10 µM.

With `Cc1cccc(N2CCCN(Cc3c[nH]c4ccccc34)CC2)n1`, the IC50 is 13 µM.

In the case of `COc1cccc(C(=O)[C@H]2C[C@@H]2CN(Cc2ccccn2)Cc2ccccn2)c1`, the IC50 is 20 µM.

`COc1ccc(S(=O)(=O)NC(C)C)cc1Nc1ncc(-c2cccc(F)c2)cn1`: the IC50 is > 40 µM (inactive).

Regarding `COc1ccc(CNc2nsc3ccccc23)cc1OC`, the IC50 was 6.3 µM.

Turning to `CN(C)Cc1ccc(N2CCC(NS(=O)(=O)c3ccc(Cl)cc3)CC2)cc1`, the IC50 was 32 µM.

As to `Cc1nc2c(-c3n[nH]c(-c4ccccc4N)n3)cccn2c1C`, the IC50 is 2.5 µM.

Regarding `Cc1ccc2onc(Nc3ccnc(Nc4cccc(S(C)(=O)=O)c4)n3)c2c1`, the IC50 was 7.9 µM.

As to `COc1cccc(C(=O)[C@H]2C[C@@H]2CN(Cc2cccnc2)Cc2cccnc2)c1`, the IC50 was > 40 µM (inactive).

For the compound `Cc1ccc(Nc2nc(C3CCCN3Cc3ccn[nH]3)cs2)nc1` (centres undefined), the 50% inhibitory concentration (IC50) was 4 µM.

As for `CCCn1c(NC(=O)CCn2cc(Br)cn2)nc2ccccc21`, the IC50 is 7.9 µM.

Consider `CN(C)S(=O)(=O)c1cccc(CSc2nnc(-c3ccc4c(c3)OCO4)o2)c1`, for which the IC50 was > 40 µM (inactive).

Regarding `CN(C)Cc1cccc(Nc2nccc(-c3ccc(NCCN)c(C#N)c3)n2)c1`, the half-maximal inhibitory concentration (IC50) was 0.2 µM.

For the compound `CC(=O)Nc1ccc(-c2ccnc(Nc3cccc(C#N)c3)n2)cc1`, the IC50 was 0.79 µM.

For the compound `O=C(Nc1nc(-c2ccccn2)cs1)c1ccccc1-n1cnnn1`, the IC50 was 0.63 µM.

As to `CCN(CC)c1ccc(S(=O)(=O)N(CC)CC)c2nonc12`, the IC50 is 25 µM.

For the compound `Cc1ccc(S(=O)(=O)Nc2ccc(CN3CCN(C(=O)c4cccc(C)c4)CC3)cc2)cc1`, the IC50 was 0.5 µM.

Regarding `COCCn1cnc2cc(NC(=O)C3CCCCC3)cc(C(=O)N3CCc4sccc4C3)c21`, the IC50 was 1 µM.

On to `O=C(Nc1nc2ccccc2[nH]1)c1ccc2nc[nH]c2c1`, for which the IC50 was > 40 µM (inactive).

Turning to `CNc1nc(C)nc(N2CCc3cc(C(=O)NCc4ccc(-c5ccn[nH]5)cc4Cl)ccc32)n1`, the IC50 is 10 µM.

For `CC(C)c1nn(-c2nc(N)nc(-c3ccccn3)n2)c(N)c1C1CCCCC1`, the IC50 is 7.9 µM.

Regarding `CCOC(=O)c1cn[nH]c1S(=O)(=O)N1CCC1c1ccccc1` (centres undefined), the IC50 was 0.79 µM.

As for `c1ccc(CNc2cccc3ccncc23)cc1`, the IC50 is > 40 µM (inactive).

Take `O=C(CN1CCN(c2ccccn2)CC1)Nc1cc(S(=O)(=O)N2CCCCCC2)ccc1Cl`: the IC50 was 25 µM.

For `COc1ccc2nccc(NC(=O)C3(OC)CCN(CC(O)c4ccc5c(c4)OCCO5)CC3)c2n1` (centres undefined), the IC50 is 0.5 µM.

For the compound `Cc1cc2ncn(-c3ccc([N+](=O)[O-])cc3C#N)c2cc1C`, the IC50 is > 40 µM (inactive).

Consider `O=C(Cn1cnc2cc([N+](=O)[O-])ccc2c1=O)NCCc1ccc(Cl)cc1Cl`, for which the IC50 was > 40 µM (inactive).

As for `COc1ccc(-c2ccc3nnc(-c4ccc(O)c(OC)c4)n3c2)cn1`, the IC50 was 2.5 µM.

Consider `CN(C)S(=O)(=O)c1ccc(-c2cnc(N)c(-c3nc4ccc(F)cc4[nH]3)c2)cc1`, for which the IC50 was 1 µM.

`CCNc1cc(-c2ccccn2)nc(Nc2ccc(OC)cc2)n1`: the IC50 is 10 µM.

With `Nc1ncnc2c1ncn2[C@@H]1O[C@H](CO)C[C@H]1O`, the IC50 was 0.01 µM.

With `O=c1[nH]c(C=Cc2cccc(OCCOc3ccccc3)c2)nc(O)c1[N+](=O)[O-]`, the IC50 is 10 µM.

As to `CC(C)(C)Nc1nc(Nc2ccc3c(c2)CS(=O)(=O)C3)nc2[nH]ccc12`, the IC50 is 5 µM.

With `O=c1[nH]cnc2c([C@@H]3O[C@H](CO)[C@@H](O)[C@H]3O)[nH]nc12`, the IC50 was 0.005 µM.

In the case of `CCN(CC)c1nc(N(C)C)nc2c1CN(Cc1ccccc1)CC2`, the IC50 is 20 µM.

`Nc1nc(-c2ccccn2)nc(N)c1Cc1c(F)cccc1Cl`: the IC50 is 2 µM.

Consider `CCc1ccc2nc(NC(=O)c3cc(N4CCOCC4)ccn3)sc2c1`, for which the IC50 is 1 µM.

Turning to `O=C(CN1CCC2(O)CCCCC2C1c1ccc2c(c1)OCO2)Nc1ccc(Cl)cc1Cl` (centres undefined), the IC50 is 7.9 µM.

For the compound `CN(Cc1cc2ccccc2s1)c1ncc2c(N)nc(N)nc2n1`, the IC50 is 25 µM.

With `CS(=O)(=O)c1cccc(-c2cnc(N)c3c(-c4ccc(CO)cc4)csc23)c1`, the IC50 is 5 µM.

Turning to `COc1cc(C(C)C)c(S(C)(=O)=O)cc1C(=O)N1CCN(c2ccccc2Cl)CC1`, the IC50 is 32 µM.

With `COc1ccc(Nc2nccc(N(C)c3n[nH]c4c(F)cccc34)n2)cc1S(C)(=O)=O`, the IC50 is 10 µM.

With `NS(=O)(=O)c1ccc(Nc2nccc(-c3cnn4ncccc34)n2)cc1`, the 50% inhibitory concentration (IC50) was 0.16 µM.

`Cn1nc([N+](=O)[O-])nc1Oc1ccc(C(=O)c2ccccc2)cc1`: the IC50 was > 40 µM (inactive).

`CCCn1c(NC(=O)Cc2ccc(Cl)cc2)nc2ccccc21`: the IC50 is 3.2 µM.

Take `NCc1csc(Nc2cc(Oc3ccccc3)ncn2)n1`: the IC50 was 0.79 µM.

Take `CS(=O)(=O)c1cccc(CNC(=O)c2cncc(N3CCN(c4ccc(F)cc4)CC3)c2)c1`: the IC50 was > 40 µM (inactive).

For `Cn1nc([N+](=O)[O-])nc1N1CCCCC1`, the IC50 was > 40 µM (inactive).

As to `Clc1ccc(CN2CCN(C3=NCCN3)CC2)cc1Cl`, the IC50 was > 40 µM (inactive).

In the case of `CC(c1ccccn1)N(C)Cc1nc2ccccc2n1C(C)C` (centres undefined), the IC50 is 10 µM.

For `COCc1cc(Nc2ccc(Cl)cc2)nc(-c2ccccn2)n1`, the IC50 is > 40 µM (inactive).

With `COc1ccc(NC(=O)c2ccc(NC(=O)CN(c3ccccc3C)S(C)(=O)=O)cc2)cc1`, the IC50 was 0.79 µM.

For `O=C(COc1nn(-c2ccccc2)c2ncccc12)NCc1ccccc1`, the IC50 was > 40 µM (inactive).

Regarding `Cc1ccc(NC(=O)c2ccnc(N3CCCC3)c2)cc1-c1ccsc1C(N)=O`, the IC50 was 0.063 µM.

`COc1cccc(-c2c(C)nn(-c3nc(N)nc(-c4ccccn4)n3)c2N)c1`: the IC50 is > 40 µM (inactive).

Regarding `O=C(Nc1ccc(C(F)(F)F)cc1)NC1(C(=O)NCc2ccco2)CCCCC1`, the IC50 was 1 µM.

For the compound `O=c1cc(NCCCNC2CCOc3c(I)cc(Cl)cc32)[nH]c2ccccc12` (centres undefined), the IC50 was 0.02 µM.

Consider `O=C(CSc1nnc2ccc(-c3ccc(F)cc3)nn12)N1CCCCC1`, for which the IC50 was 0.5 µM.

`O=C(O)[C@H]1C[C@@H]1c1ccc(-c2ccc(CN(CCc3ccccn3)C(=O)C3CCC3)cc2)cc1`: the IC50 is 0.79 µM.

On to `CCOc1ccccc1C(=O)Nc1nnc(-c2ccc3c(c2)OCO3)s1`, for which the IC50 is > 40 µM (inactive).

Take `CCCN1CCN(Cc2ccc(S(=O)(=O)Nc3cccc(C)c3)cc2)CC1`: the IC50 was > 40 µM (inactive).

With `CC1CCCCN1C(=O)NCCc1coc(-c2ccc(F)cc2)n1` (centres undefined), the 50% inhibitory concentration (IC50) is 0.16 µM.

On to `CC(C)c1cc(Nc2cc(Cc3ccccc3)nc(NC3CCC(O)CC3)n2)n[nH]1` (centres undefined), for which the IC50 was 0.1 µM.

Take `CN(C(=O)Nc1ccc2c(c1)CCN(C1CCC1)CC2)c1ccc(C#N)cc1`: the half-inhibitory concentration (IC50) is 0.63 µM.

For `CC(C)Oc1cccc(N2CCC(C(=O)N3CCCN(C(C)C)CC3)CC2)c1`, the IC50 was > 40 µM (inactive).

In the case of `O=C(Cc1ccc2c(c1)CCC2)Nc1n[nH]c(-c2ccccn2)n1`, the IC50 is > 40 µM (inactive).

As for `Cc1nc(C(=O)Nc2ccc3c(c2)OCO3)nn1-c1ccc(F)cc1`, the IC50 was > 40 µM (inactive).

As to `N#Cc1cccc(Cc2cc(Nc3cc(C4CC4)[nH]n3)nc(N3CC[C@H]3C(N)=O)n2)c1`, the IC50 was 0.063 µM.

For the compound `NC(=O)c1ccc(-c2cccc(OCCN3CCN(C4CCCCC4)CC3)c2)cc1`, the IC50 was 16 µM.

`N#Cc1nc(C=Cc2ccccc2)oc1NCc1cccnc1`: the 50% inhibitory concentration (IC50) was 32 µM.

For `C[C@@H](Oc1cc(-n2cnc3ccc(O[C@H]4CCNC4)cc32)sc1C(N)=O)c1ccccc1Cl`, the IC50 was 0.79 µM.

Regarding `O=c1ccn(-c2ccc([N+](=O)[O-])cc2Cl)c2ccc(F)cc12`, the IC50 is > 40 µM (inactive).

For `O=C(NCc1nnc2n1CCCCC2)c1csc(-c2ccccc2)n1`, the IC50 was 0.4 µM.

In the case of `O=[N+]([O-])c1ccc(-c2nnn(-c3ccc(Cl)cc3)n2)o1`, the half-inhibitory concentration (IC50) was 1 µM.

Regarding `O=C(Nc1cccc(Cl)c1)Nc1ccc([N+](=O)[O-])cc1Cl`, the IC50 was 3.2 µM.

In the case of `Cc1ccc(S(=O)(=O)Cn2nnnc2C(c2cccnc2)N2CCN(c3ccccc3)CC2)cc1` (centres undefined), the IC50 was > 40 µM (inactive).

On to `O=c1oc2ccccc2n1C1CCN(Cc2ccccc2-c2cccnc2)CC1`, for which the IC50 was > 40 µM (inactive).

Consider `Cc1cc(C)nc(N2CCC(N(Cc3cccnc3)C(=O)c3cccc(C#N)c3)CC2)n1`, for which the IC50 was > 40 µM (inactive).

For the compound `Nc1nccc(-c2csc(Nc3ccc(Cl)cc3)n2)n1`, the IC50 is > 40 µM (inactive).

`Cc1c(Nc2cc(C3CC3)[nH]n2)ccc(C#N)c1Cl`: the IC50 is 0.63 µM.

For the compound `Cn1nccc1NC(=O)Cn1ccc(-c2ccncc2)n1`, the IC50 is 0.63 µM.

With `Cc1nccn1C1CCCN(C(=O)c2cc3c(F)cccc3s2)C1` (centres undefined), the IC50 is > 40 µM (inactive).

With `N#Cc1ccccc1S(=O)(=O)N1CCN(C(=O)CNC(=O)c2ccc3c(c2)OCO3)CC1`, the IC50 is > 40 µM (inactive).
